Experimental data reported in PubChem BioAssay (NCI).
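Results reflect a 48-hour exposure of cells in 96-well plates to compound at five concentrations. The concentration for full growth arrest is given as TGI.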

Tests used:
Assay in all cases: inhibition of tumour cell growth, NCI panel, 48 h
HS 578T breast = test system: HS 578T breast
UO-31 renal = test system: UO-31 renal
OVCAR-8 ovarian = test system: OVCAR-8 ovarian
NCI/ADR-RES ovarian = test system: NCI/ADR-RES ovarian
HCT-116 colon = test system: HCT-116 colon
SW-620 colon = test system: SW-620 colon
EKVX NSCLC = test system: EKVX NSCLC
HT29 colon = test system: HT29 colon
BT-549 breast = test system: BT-549 breast
A498 renal = test system: A498 renal
SF-539 CNS = test system: SF-539 CNS
HOP-92 NSCLC = test system: HOP-92 NSCLC
K-562 leukemia = test system: K-562 leukemia
T-47D breast = test system: T-47D breast
OVCAR-5 ovarian = test system: OVCAR-5 ovarian
SK-MEL-2 melanoma = test system: SK-MEL-2 melanoma
CCRF-CEM leukemia = test system: CCRF-CEM leukemia
SK-MEL-5 melanoma = test system: SK-MEL-5 melanoma
OVCAR-3 ovarian = test system: OVCAR-3 ovarian
MALME-3M melanoma = test system: MALME-3M melanoma
MOLT-4 leukemia = test system: MOLT-4 leukemia
MDA-MB-231 breast = test system: MDA-MB-231 breast
SF-295 CNS = test system: SF-295 CNS
NCI-H460 lung = test system: NCI-H460 lung
LOX IMVI melanoma = test system: LOX IMVI melanoma
A549 NSCLC = test system: A549 NSCLC
SN12C renal = test system: SN12C renal
HCT-15 colon = test system: HCT-15 colon
ACHN renal = test system: ACHN renal
SNB-19 CNS = test system: SNB-19 CNS
MCF7 breast = test system: MCF7 breast
RXF 393 renal = test system: RXF 393 renal
HCC-2998 colon = test system: HCC-2998 colon
U251 CNS = test system: U251 CNS
MDA-N = test system: MDA-N
TK-10 renal = test system: TK-10 renal
KM12 colon = test system: KM12 colon
CAKI-1 renal = test system: CAKI-1 renal
M14 melanoma = test system: M14 melanoma
UACC-257 melanoma = test system: UACC-257 melanoma
RPMI-8226 leukemia = test system: RPMI-8226 leukemia
SR leukemia = test system: SR leukemia
SF-268 CNS = test system: SF-268 CNS
786-0 renal = test system: 786-0 renal
DU-145 prostate = test system: DU-145 prostate
OVCAR-4 ovarian = test system: OVCAR-4 ovarian
HOP-62 NSCLC = test system: HOP-62 NSCLC
IGROV1 ovarian = test system: IGROV1 ovarian
UACC-62 melanoma = test system: UACC-62 melanoma
SK-OV-3 ovarian = test system: SK-OV-3 ovarian
NCI-H522 lung = test system: NCI-H522 lung
MDA-MB-435 = test system: MDA-MB-435
NCI-H23 lung = test system: NCI-H23 lung
COLO 205 colon = test system: COLO 205 colon
SK-MEL-28 melanoma = test system: SK-MEL-28 melanoma
NCI-H226 lung = test system: NCI-H226 lung
PC-3 prostate = test system: PC-3 prostate
SNB-75 CNS = test system: SNB-75 CNS
HL-60(TB) leukemia = test system: HL-60(TB) leukemia

CC(C)=CCC[C@@H](C)C1=C(Nc2ccccc2F)C(O)=C(C)C(=O)C1=O
TGI (HS 578T breast): 57.1 µM | TGI (UO-31 renal): 25.2 µM | TGI (OVCAR-8 ovarian): > 30.2 µM | TGI (NCI/ADR-RES ovarian): > 23.8 µM | TGI (HCT-116 colon): > 35.7 µM | TGI (SW-620 colon): > 69.1 µM | TGI (EKVX NSCLC): > 100 µM | TGI (HT29 colon): 24.3 µM | TGI (BT-549 breast): > 100 µM | TGI (A498 renal): > 43.9 µM | TGI (SF-539 CNS): 59.8 µM | TGI (HOP-92 NSCLC): > 69.9 µM | TGI (K-562 leukemia): > 100 µM | TGI (T-47D breast): 64.1 µM | TGI (OVCAR-5 ovarian): > 100 µM | TGI (SK-MEL-2 melanoma): 42.1 µM | TGI (CCRF-CEM leukemia): 3.9 µM | TGI (SK-MEL-5 melanoma): 14.8 µM | TGI (OVCAR-3 ovarian): > 100 µM | TGI (MALME-3M melanoma): 29.5 µM | TGI (MOLT-4 leukemia): > 67.8 µM | TGI (MDA-MB-231 breast): > 100 µM | TGI (SF-295 CNS): > 31.5 µM | TGI (NCI-H460 lung): > 100 µM | TGI (LOX IMVI melanoma): > 100 µM | TGI (A549 NSCLC): > 44.9 µM | TGI (SN12C renal): > 100 µM | TGI (HCT-15 colon): > 70.6 µM | TGI (ACHN renal): 14.3 µM | TGI (SNB-19 CNS): > 100 µM | TGI (MCF7 breast): 81.6 µM | TGI (RXF 393 renal): > 64.1 µM | TGI (HCC-2998 colon): 38.1 µM | TGI (U251 CNS): > 31.6 µM | TGI (MDA-N): > 100 µM | TGI (TK-10 renal): > 100 µM | TGI (KM12 colon): 19.4 µM | TGI (CAKI-1 renal): 34.2 µM | TGI (M14 melanoma): > 100 µM | TGI (UACC-257 melanoma): > 100 µM | TGI (RPMI-8226 leukemia): > 100 µM | TGI (SR leukemia): > 100 µM | TGI (SF-268 CNS): > 100 µM | TGI (786-0 renal): > 100 µM | TGI (DU-145 prostate): > 100 µM | TGI (OVCAR-4 ovarian): > 100 µM | TGI (HOP-62 NSCLC): > 72.1 µM | TGI (IGROV1 ovarian): > 39.1 µM | TGI (UACC-62 melanoma): 22.6 µM | TGI (SK-OV-3 ovarian): 73.3 µM | TGI (NCI-H522 lung): 17.1 µM | TGI (MDA-MB-435): > 100 µM | TGI (NCI-H23 lung): 36.1 µM | TGI (COLO 205 colon): 12.4 µM | TGI (SK-MEL-28 melanoma): > 64.3 µM | TGI (NCI-H226 lung): 24 µM | TGI (PC-3 prostate): > 100 µM | TGI (SNB-75 CNS): > 100 µM

CCOC(=O)N1CCN(c2c(N)nc(C)[nH]c2=O)CC1
TGI (HS 578T breast): > 100 µM | TGI (UO-31 renal): > 100 µM | TGI (OVCAR-8 ovarian): > 100 µM | TGI (NCI/ADR-RES ovarian): > 100 µM | TGI (HCT-116 colon): > 100 µM | TGI (SW-620 colon): > 100 µM | TGI (EKVX NSCLC): > 100 µM | TGI (HT29 colon): > 100 µM | TGI (BT-549 breast): > 100 µM | TGI (A498 renal): > 100 µM | TGI (SF-539 CNS): > 100 µM | TGI (HOP-92 NSCLC): > 100 µM | TGI (K-562 leukemia): > 100 µM | TGI (T-47D breast): > 100 µM | TGI (OVCAR-5 ovarian): > 100 µM | TGI (SK-MEL-2 melanoma): > 100 µM | TGI (CCRF-CEM leukemia): > 100 µM | TGI (OVCAR-3 ovarian): > 100 µM | TGI (MALME-3M melanoma): > 100 µM | TGI (MOLT-4 leukemia): > 100 µM | TGI (MDA-MB-231 breast): > 100 µM | TGI (SF-295 CNS): > 100 µM | TGI (NCI-H460 lung): > 100 µM | TGI (LOX IMVI melanoma): > 100 µM | TGI (A549 NSCLC): > 100 µM | TGI (SN12C renal): > 100 µM | TGI (HCT-15 colon): > 100 µM | TGI (ACHN renal): > 100 µM | TGI (SNB-19 CNS): > 100 µM | TGI (MCF7 breast): > 100 µM | TGI (HCC-2998 colon): > 100 µM | TGI (U251 CNS): > 100 µM | TGI (MDA-N): > 100 µM | TGI (TK-10 renal): > 100 µM | TGI (KM12 colon): > 100 µM | TGI (M14 melanoma): > 100 µM | TGI (UACC-257 melanoma): > 100 µM | TGI (RPMI-8226 leukemia): > 100 µM | TGI (SR leukemia): > 100 µM | TGI (SF-268 CNS): > 100 µM | TGI (786-0 renal): > 100 µM | TGI (HL-60(TB) leukemia): > 100 µM | TGI (DU-145 prostate): > 100 µM | TGI (OVCAR-4 ovarian): > 100 µM | TGI (HOP-62 NSCLC): > 100 µM | TGI (NCI-H522 lung): > 100 µM | TGI (MDA-MB-435): > 100 µM | TGI (NCI-H23 lung): > 100 µM | TGI (COLO 205 colon): > 100 µM | TGI (SK-MEL-28 melanoma): > 100 µM | TGI (NCI-H226 lung): > 100 µM | TGI (PC-3 prostate): > 100 µM | TGI (SNB-75 CNS): > 100 µM
